One data set deals with human hepatocytes. Description: Metabolite study in human hepatocyte incubation system. It counts as in vitro ADME. Particulars: 180 min incubation, LC-MS. The protocol:
(§1) Example 28: Study on Metabolites of Compound in Human and Rat Hepatocyte Incubation System
(§2) 1. Preparation of Stock and Working Solutions
(§3) Stock solution: A proper amount of test sample powders was dissolved in DMSO or other proper solvents, and the mixture was well mixed to give a stock solution (10 mM). The stock solution was preserved in a refrigerator at 4° C. for later use.
(§4) Working solution: The 10 mM stock solution was diluted to 1 mM working solution using acetonitrile, and well mixed for later use.
(§5) 2. Preparation of Thawing Medium I
(§6) Williams' Medium E, glutamate, HEPES, fetal bovine serum albumin, human recombinant insulin, dexamethasone, and cell separation medium (Percoll™) were mixed in a ratio of 700:10:15:50:1:0.1:300 for use.
(§7) 3. Preparation of Terminating Solution
(§8) An acetonitrile solution containing 0.1% formic acid was prepared as the terminating solution and preserved in a refrigerator at 4° C. for use.
(§9) 4. Isolation and Preparation of Hepatocyte Suspension
(§10) The cryopreserved hepatocytes were thawed in a water bath at 37° C. for about 90 s, and quickly poured into the pre-heated isolating buffer. Residual hepatocytes were washed using the isolating buffer. Cells were combined and mixed well, and centrifuged at room temperature for 5 min at 100×g. The supernatant was discarded and the cells were resuspended using pre-heated William' Medium E. 20 μL of hepatocyte suspension was added into 100 μL of 0.4% Trypan blue. The cells were counted, and a cell viability over 70% was required. The hepatocyte density was adjusted to 1.25×10^6 cells/mL using William' Medium E.
(§11) 5. Incubation and Treatment of Samples
(§12) 1) The test compound working solution was pre-incubated (pre-heated) in a constant-temperature incubator at 37° C. for 10 min. 2 μL of the working solution (1 mM) was pipetted to a cell culture plate containing 160 μL of hepatocyte suspension at 1.25×10^6 cells/mL, and the mixture was well mixed. 38 μL of Williams' Medium E was added. The mixture was well mixed and incubated in an incubator (in a total volume of 200 μL), and the timer was started. For the blank control, […] of Williams' Medium E was added instead of the working solution. For 0-min samples, 400 μL of acetonitrile (containing 0.1% formic acid) was added, followed by the working solution and Williams' Medium E.
(§13) 2) After 180 min of incubation, the samples were measured for the cell viability. Then 400 μL of acetonitrile (containing 0.1% formic acid) solution was added to terminate the reaction.
(§14) 3) After the reaction was terminated, the plate was shaken on a shaker at 300 rpm for 10 min, followed by centrifugation at least 10000×g for at least 10 min. After centrifugation, the supernatant was all transferred to centrifuge tubes and dried with nitrogen.
(§15) 4) The residues were re-dissolved in a suitable solvent, and centrifuged at least 10000×g for at least 15 min at room temperature. The supernatant was transferred to a sample analysis plate for LC-MS analysis.
(§16) 5) The methodology for 7-ethoxycoumarin (30 μM) was the same as that of test samples. Samples of the test compounds after incubation were used for metabolite assay only when the target metabolite was detected in the positive control sample. Otherwise, the above experiment should be repeated.
(§17) 6. Data Acquisition and Analysis […]

For data set [1], the system named is primary human hepatocytes. Nature of the data set: Cytotoxicity assay on primary human hepatocytes (CellTiter-Glo, 48 h). Conditions: Hepatocyte, cell viability, 48 h incubation. The data set is classed as cell-based. On the procedure: Example 26: Cytotoxicity Assay of Compounds on Primary Human Hepatocytes
Primary human hepatocytes were purchased from Biorecamation IVT. Co., Ltd. (lot no.: AKB/S1391); the components of in vitro culture media of primary human cell and suppliers are as follows:
1. Frozen primary human hepatocytes were thawed, then resuspended in a culture medium containing 10% FBS. The cells were transferred into a 96-well plate, at 8×10^4 cells/well, followed by incubating overnight in an incubator at 5% CO2 at 37° C.;
2. […] The test compounds and control drug were added to wells, at 100 μL/well, to form test compound wells or reference wells, and the culture medium containing 10% FBS was added to wells, at 100 μL/well, as negative control. The cells were incubated in an incubator in the presence of 5% CO2 at 37° C. for 48 h.
3. The primary human hepatocytes were washed with PBS (0.1 M, pH=7.4) twice, and were added with CellTiter-Glo reagent at 100 μL/well. Cell-free wells added with CellTiter-Glo reagent at 100 μL/well served as the blank control. The 96-well plate was shaken on a shaker for 5 min, and then left at room temperature for 10 min.
4. The chemiluminescence values were detected using Victor X4 (Perkin Elmer). The chemiluminescence values of the test compound wells were denoted as F(test compound), the chemiluminescence values of the blank control wells were denoted as F(blank), and the chemiluminescence values of the negative control wells were denoted as F(negative control). The cell viabilities at different concentrations were calculated according to the following formula. Each concentration was measured in triplicate to give the average and the standard deviation.
5. The half maximal inhibitory concentration (IC50) of the test compounds to the primary human hepatocytes were calculated using Prism Graph software.
(In general: Cellular ATP, detected with luciferase, serves as a proxy for viable cell number.)

A further data set concerns rat hepatocytes. Description: Metabolite study in rat hepatocyte incubation system. Conditions: 180 min incubation, LC-MS. It counts as in vitro ADME. On the procedure: as §1, §2, §3, §4, §5, §6, §7, §8, §9, §10, §11, §12, §13, §14, §15, §16, §17

pIC50: −log10 of the molar value.

Consider `CCc1nc2ncc(F)cn2c1C(=O)c1cc(Br)c(O)c(Br)c1` [Example 4, (3,5-dibromo-4-hydroxyphenyl)(2-ethyl-6-fluoroimidazo[1,2-a]pyrimidin-3-yl)methanone], for which the “toxic metabolites of benzbromarone type” value in the data set with human hepatocytes and with rat hepatocytes was “not observed” in each case. Further, the pIC50 in data set [1] was 3.59.
As to `CCc1nc2ncc(C(F)(F)F)cn2c1C(=O)c1cc(Br)c(O)c(Br)c1` [Example 5, (3,5-dibromo-4-hydroxyphenyl)(2-ethyl-6-(trifluoromethyl)imidazo[1,2-a]pyrimidin-3-yl)methanone], the “toxic metabolites of benzbromarone type” value with human hepatocytes and with rat hepatocytes was “not observed” each time. In data set [1], this compound had a pIC50 of 4.11.
As to `CCc1nc2ncc(F)cn2c1C(=O)c1cc(Br)c(O)c(C#N)c1` [Example 14, 3-bromo-5-(2-ethyl-6-fluoroimidazo[1,2-a]pyrimidine-3-carbonyl)-2-hydroxybenzonitrile], the “toxic metabolites of benzbromarone type” value in the data set with human hepatocytes and with rat hepatocytes was “not observed” each time. Further, the negative-log IC50 (pIC50) in data set [1] was at most 3.00.
`CCc1nc2ncccn2c1C(=O)c1cc(Br)c(O)c(Br)c1` [Example 20, 2,6-dibromo-4-([2-ethylimidazo[1,2-a]pyrimidin-3-yl]carbonyl) phenol]: the “toxic metabolites of benzbromarone type” value with human hepatocytes and in the data set on rat hepatocytes was “not observed” throughout.
For the compound `CCc1nc2cc(Cl)ncn2c1C(=O)c1cc(Br)c(O)c(Br)c1` [Example 21, (7-chloro-2-ethylimidazo[1,2-f]pyrimidin-3-yl)(3,5-dibromo-4-hydroxyphenyl)methanone], the “toxic metabolites of benzbromarone type” value with human hepatocytes and in the data set on rat hepatocytes was “not observed” in each case. The compound further gave a pIC50 in data set [1] of 3.46.

Broadly, the pIC50 is the negative decadic logarithm of the IC50, by convention in mol/L.

(Values after patent US11453674B2, “Heterocyclic compound, preparation method and use thereof in medicine” (SUZHOU SINOVENT PHARMACEUTICALS CO., LTD., priority 2019, dated 2022).)
